Data on ten molecules can be found in PMC5554537 (Frontiers in Pharmacology, 2017).

The nature of data set [1]: Metabolite profile in plasma, liver and HT29 tumor after i.p. SN30000. In kind it is in vivo, NIH-III mice. The settings on record: SN30000 186 mg/kg i.p.; for Metabolite/SN30000 peak area, Tumor: HT29 tumor. As for the experimental part: Mouse plasma and tissue homogenates, prepared from tissue samples in two volumes of ice-cold PBS using a TissueLyser II (Qiagen Sciences, Germantown, MD, United States) with 30 Hz oscillation frequency for 1 min, were processed by precipitating proteins with 3 vol MeOH and centrifuging (13,000 g, 4°C for 10 min). Supernatants were diluted into 3 vol water and analyzed with an Agilent model 6460 LC-MS/MS with an in-line photodiode array absorbance detector. Chromatographic separation was performed on a Zorbax Eclipse C18 column (100 mm × 3.0 mm, 1.8 μm; Agilent Technologies) at 35°C with a flow rate of 0.6 mL/min, with positive or negative mode electrospray ionization. The mobile phase was a gradient constructed using 80% MeCN/20% water/0.1% formic acid v/v/v (A) and 0.1% formic acid in water (B) from 10% A to 80% A with a total run time of […]. The gradient profile was: 0–4 min, 10% A; 4–11 min linear increase to 60% A; 11–12 min to 80% A; held for 1 min, returned to 10% A over 0.5 min and held for 2 min before the next sample injection. Absorbance spectra were collected from 230 to 600 nm with a reference wavelength of 550 nm. The mass/charge (m/z) ratio was scanned from 100 to 800 with a fragmentor voltage of 120 V. MS^2 with various collision energies was used for further characterization of some metabolites.
Metabolites were investigated in plasma, liver and HT29 tumors following i.p. dosing of female NIH-III mice with SN30000 at 186 mg/kg, which represents its previously determined MTD for this route and mouse strain ([Gu et al., 2014]). Representative chromatograms are shown in Supplementary Figure 1. A total of 19 metabolites (M1–M19) were provisionally identified (Figure 1 and Table 1). Assignments were confirmed by comparison with synthetic standards in the case of the 1-oxide M14 and nor-oxide M13, which have previously been reported as murine metabolites of SN30000 ([Wang et al., 2012]) and for M15 which is known to be the major photodegradation product of SN30000 ([Gu et al., 2014]). In addition, the previously unreported metabolite M18, which is the main plasma metabolite at late times, was isolated from pooled plasma of mice dosed with M14 in sufficient quantity for characterization by NMR (Supplementary Data). This identified M18 as an oxidation product of M14 with an alkanoic acid side-chain (Figure 1), an assignment that was confirmed by synthesis of the authentic compound which was identical by HPLC retention time, absorbance spectrum, elemental analysis, mass spectrum and NMR spectroscopy.

A short description of data set [2]: Compartmental plasma PK model. Format: in vivo. From the text:
This model, shown schematically in Figure 9, is based on total (free + bound) plasma concentrations; the major metabolites (M14, M13, and M18) are explicit and clearance of SN30000 occurs only by reduction to M14. The i.p. bioavailability of SN30000 was modeled with an additional term for loss from the peritoneal compartment (kloss).

The next data set in a line: in vivo. Particulars: female, NIH-III nude, mouse, plasma, ip.
Data set [3] concerns NIH-III mice. As to the kind of experiment: Mouse toxicity: MTD, survival and body weight loss after single i.p. doses. Format: in vivo. The settings on record: i.p., NIH-III mice, as stated for the temperature study (Figure 4). From the text: Mouse toxicity SN30000 and metabolites M14 and M18: survival and body weight loss following single i.p. doses to NIH-III mice.
Cmpd Dose Body weight nadir Body weight nadir
(µmol/kg) Survivala Survivala
Day Weight loss (%)b Day Weight loss (%)b […]
a Survival reported as a fraction of total nu mber of animal treated at a giv en dose, with an observation time of 14 days. Deaths were predominantly due to humane ter mination because of persistent clinical signs or body weight loss > 15% of pretreatment values. b Body weig ht loss at nadir, relative to pre-treatment values. Values are mean and errors are […]
c Data from Gu et al., 2014 d Mouse died <24 hr after dosing.

Data set [4] concerns NIH-III mice. The data set can be described thus: Core body (rectal) temperature and acute clinical signs after dosing. Format: in vivo. As for the experimental part:
Supplementary Figure 3. Initial rates of core temperature decrease in (untreated) NIH-III mice post- mortem: co mparison with initial temperature change ante- mortem following treatment with benzotriazine oxides at their MTD. Temperature was measured in rectu m and liver over 15 min. Initial rates of temperature loss (°C/min) were: post- mortem (rectum):
(rectum) 0.33. The rectal temperature loss following dosing with M14 (135 mg/kg) was 0.6 °C/min (not shown for clarity). The drug-induced changes are redrawn from Fig. 4.

The test system of the next data set is SiHa cells. As to the kind of experiment: Oxygen consumption rate, Seahorse XFe96 analyser. In kind it is cell-based, human. The settings on record: 200 µM, mitochondrial stress test. On the procedure: (OCR) of the human cervical carcinoma cell line SiHa and a previously described (Guise et al., 2007) POR-overexpressing transfectant SiHa/POR, determined using a Seahorse XFe96 Analyser (Agilent). Cells were passaged in αMEM plus 5% FCS, with 1 µM puromycin to maintain POR expression in the SiHa/POR cell line. Cells were ty pically seeded at 4×10^4 cells/well in Seahorse 96 well plates (without puromycin) and ~ 18 hr later the medium was changed to Seahorse medium with 10 mM glucose and 2 mM glutamine (SMGG) adjusted to pH 7.35 (150 µl/well). Plates were degassed to remove CO2, and inhibitors were added serially using the Seahorse injectors (25 µl/injection) with rotenone (final concentration 0.5 µM) typically added at the start of the 30 min equilibration in the flux analyser. OCR was monitored for three 3 min periods following each drug addition. […]
injection 1 and at each subsequent injection to maintain concentrations at 200 µM continuously during the test. The control received equivalent injections of SMGG without drugs. In all cases (including controls), injection 2 added oligomycin to give 0.5 µM, injection 3 added carbonyl cyanide […] (FCCP) to 0.5 µM, and injection 4 added rotenone and antimy cin to 1 µM each. V alues are means and errors are standard deviations, for 6 replicate cultures. […]
suppressed by M14, both in the presence (injection 1) and absence (injection 4) of respiratory […]
presence or absence of 0.5 µM rotenone when SN30000 is added cumulatively to give the indicated concentrations. Values are means and SEM for 5 replicate cultures. The fall in OCR after transient stimulation at each addition of SN30000 is consistent with the pattern for CHO/POR cells in Supplementary Fig. 4A.
C: Concentration dependence of increases in OCR by SiHa/POR cells, measured at the first […]
effects noted above. Left panel: SN30000. Right panel: TPZ. Values are means and errors are […]

Where [5] appears, read: administered 16hr after SN30000 0 mg/kg.
[6] abbreviates: at the highest i.p. dose of co-administered SN30000.
Setting [7] is: co-administered with SN30000 18.6 mg/kg i.p.
Where [8] appears, read: co-administered with SN30000 92.8 mg/kg i.p.
[9] abbreviates: co-administered with SN30000 186 mg/kg i.p.

Where two headings read alike, the source gives them in different places.

Method for in vivo: SN30000, M14 and M18 dosing solutions were prepared fresh in normal saline, filtered through 0.45 μm Acrodisc filters (Pall Life Sciences, Port Washington, NY, United States), protected from light in amber vials, and used within 3 h. Doses are expressed as mg of free base equivalent for SN30000 and M14, and free acid in the case of M18. […] Blood samples were collected from mice at various times by cardiac puncture, seconds after cervical dislocation, into ice-cold tubes containing K2EDTA. These were placed on ice immediately after collection and centrifuged (3,000 g, 3 min) within 10 min to harvest plasma. Plasma and tissues were rapidly frozen in liquid nitrogen before storage at -80°C for subsequent bioanalysis.
Non-compartmental parameters of 3H-mannitol for the data
shown in Figure 9 where female NIH-III nude mice were dosed with 3H-mannitol at
from mannitol concentrations as described in Methods for SN30000 and its metabolites.
Co-administered with Administered 16hr

For `[O-][n+]1nc(CCCN2CCOCC2)nc2cc3c(cc21)CC=C3` [M5], in data set [1], the “Metabolite/SN30000 peak area, Tumor” value was determined as 0.04; the “Metabolite/SN30000 peak area, Liver” value amounted to 0.64; the “Metabolite/SN30000 peak area, Plasma” value was 0.05.
Regarding `[O-][n+]1nc(CCCNCCO)[n+]([O-])c2cc3c(cc21)CCC3` [M7], in data set [1], the “Metabolite/SN30000 peak area, Tumor” value was 0.06; the “Metabolite/SN30000 peak area, Liver” value was 0.17; the “Metabolite/SN30000 peak area, Plasma” value was 0.06.
As to `OCCNCCCc1nnc2cc3c(cc2n1)CCC3` [M11], in data set [1], the “Metabolite/SN30000 peak area, Tumor” value came out at 0.06; the “Metabolite/SN30000 peak area, Liver” value worked out at 0.34; the “Metabolite/SN30000 peak area, Plasma” value came to 0.04.
The like results for `[O-][n+]1nc(CCCNCCO)nc2cc3c(cc21)CCC3` [M12] were, in that order, 0.16, 1.06 and 0.13.
As to `[O-][n+]1nc(CCC[N+]2([O-])CCOCC2)nc2cc3c(cc21)CCC3` [M15], in data set [1], the “Metabolite/SN30000 peak area, Tumor” value is 0.24; the “Metabolite/SN30000 peak area, Liver” value stood at 0.21; the “Metabolite/SN30000 peak area, Plasma” value is listed as 0.26.
Consider `O=C(O)CCc1n[n+]([O-])c2cc3c(cc2[n+]1[O-])CCC3` [M16], for which, in data set [1], the “Metabolite/SN30000 peak area, Tumor” value was 0.49; the “Metabolite/SN30000 peak area, Liver” value is listed as 0.34; the “Metabolite/SN30000 peak area, Plasma” value is reported as 0.50.
In the case of `O=C(O)CCc1nnc2cc3c(cc2n1)CCC3` [M17], in data set [1], the “Metabolite/SN30000 peak area, Tumor” value was determined as 0.14; the “Metabolite/SN30000 peak area, Liver” value stood at 0.12; the “Metabolite/SN30000 peak area, Plasma” value is listed as 0.11.
For the molecule `O=C1COCCN1CCCc1nc2cc3c(cc2[n+]([O-])n1)CCC3` [M19], in data set [1], the “Metabolite/SN30000 peak area, Tumor” value worked out at 0.02; the “Metabolite/SN30000 peak area, Liver” value is reported as 0.27; the “Metabolite/SN30000 peak area, Plasma” value stood at 0.03.
In the case of `OC[C@@H](O)[C@@H](O)[C@H](O)[C@H](O)CO` [Mannitol, mannitol], the “Central compartment volume V1” value in data set [2] (1-Oxide and Nor-oxide values fixed) turned out to be 0.39 L/kg. Further, the “Approximate % suppression per °C of CL” value in data set [2] (NIH-III, mouse, in vivo) is roughly 24%. Further, the clearance in data set [2] (NIH-III, mouse, plasma, other: i.p. and i.v. datasets fitted simultaneously, model clearance of the compound, read-out: CL (converted)) is 19.5 mL/min/kg. Also, the Vd in data set [2] (NIH-III, mouse, plasma, other: i.p. and i.v. datasets fitted simultaneously, read-out: Steady state volume VSS) was 0.39 L/kg. The AUC (3H-mannitol 25 µmol/kg co-administered with SN30000 1.86 mg/kg i.p.) is 16.1 µM.hr/L; the AUC under setting [5] is listed as 17.5 µM.hr/L; the AUC (administered 16hr after SN30000 18.6 mg/kg i.p.) worked out at 19.6 µM.hr/L; the AUC (administered 16hr after SN30000 186 mg/kg i.p.) came to 20.4 µM.hr/L; the AUC under setting [7] stood at 17.9 µM.hr/L; the AUC under setting [8] is 36.2 µM.hr/L. Besides, the AUC under setting [9] amounted to 44.5 µM.hr/L. Also, the “Increase in AUC” value under setting [6] amounted to 3 fold. Besides, the “Increase in plasma half-life” value under setting [6] is roughly 2 fold. The Cmax – broadly, the peak of the concentration-time curve – in the data set “in vivo” (18.6 mg/kg, administered 16hr after SN30000 18.6 mg/kg i.p.) came to 36.9 µM; in “in vivo” (186 mg/kg, administered 16hr after SN30000 186 mg/kg i.p.), 33.2 µM; in the data set “in vivo” (setting [5]), 31.7 µM; in “in vivo” (co-administered with SN30000 1.86 mg/kg i.p.), 41.2 µM; in “in vivo” (setting [7]), 43.5 µM; in “in vivo” (setting [8]), 52.3 µM. For the same molecule, the Cmax in “in vivo” (setting [9]) was 51 µM. Further, the half-life (commonly the time needed for the level to fall by half in the phase considered) in “in vivo” (18.6 mg/kg, T1/2, administered 16hr after SN30000 18.6 mg/kg i.p.) stood at 21 min; in “in vivo” (186 mg/kg, T1/2, administered 16hr after SN30000 186 mg/kg i.p.), 23.2 min; in “in vivo” (T1/2, administered 16hr after SN30000 0 mg/kg), 19.7 min; in the data set “in vivo” (T1/2, co-administered with SN30000 1.86 mg/kg i.p.) it was 14.1 min; in “in vivo” (T1/2, co-administered with SN30000 18.6 mg/kg i.p.) it was 13.1 min; in “in vivo” (T1/2, co-administered with SN30000 92.8 mg/kg i.p.) it was 24.6 min. Moreover, the half-life in the data set “in vivo” (T1/2, co-administered with SN30000 186 mg/kg i.p.) was found to be 26.9 min.
`Nc1n[n+]([O-])c2ccccc2[n+]1[O-]` [TPZ, tirapazamine, reference compound]: the MTD in the data set with NIH-III mice [3] turned out to be 31.7 mg/kg. Further, the “Initial rate of temperature loss (rectum)” value in the data set on NIH-III mice [4] (i.p. SN30000 186 mg/kg, TPZ 31.7 mg/kg, M14 135 mg/kg) was found to be 0.33 °C/min. Moreover, the “Effect on core body temperature” value in the data set on NIH-III mice [4] (i.p. dosing at MTD, compared with SN30000) is “induced hypothermia”. For the same molecule, the “Effect on oxygen consumption rate (OCR)” value in the data set with SiHa cells is given as “increased”.
